Laboratory results published in ChEMBL document CHEMBL1129907, “The SAR of UK-78,282: A novel blocker of human T cell Kv1.3 potassium channels” (Bioorg Med Chem Lett, 1997).

system: T-cell line; assay: In vitro inhibitory potency against human T-cells Rb efflux; type: functional, cell-based

Row | SMILES | IC50 [nM]
1 | COc1ccc(CCC[n+]2ccc(COC(c3ccccc3)c3ccccc3)cc2)cc1 | > 20000
2 | COc1ccc(CCCN2CCC(CNC(c3ccccc3)c3ccccc3)CC2)cc1 | 2800
3 | COc1ccc(CCCN2CCC(COC(c3ccc(Br)cc3)c3ccc(Br)cc3)CC2)cc1 | 3200
4 | COc1ccc(CCCN2C3CCC2CC(COC(c2ccccc2)c2ccccc2)C3)cc1 (stereo not given) | 400
5 | COc1ccc(CCCN2CCC(CCC(c3ccccc3)c3ccccc3)CC2)cc1 | 200
6 | COc1ccc(CCCN2CCC(C(O)CC(c3ccccc3)c3ccccc3)CC2)cc1 (stereo not given) | 1500
7 | COc1ccc(CCCN2CCC(COCc3ccc(Cl)c(Cl)c3)CC2)cc1 | 200
8 | COc1ccc(CC2(CN3CCC(COC(c4ccccc4)c4ccccc4)CC3)CCCCC2)cc1 | 3400
9 | COc1ccc(CCCN2CCC(=CCC(c3ccccc3)c3ccccc3)CC2)cc1 | 400
10 | COc1ccc(CCCN2CCC(COCc3ccccc3)CC2)cc1 | 2100
11 | COc1ccc(CCCN2CCC(COCc3ccccn3)CC2)cc1 | 5900
12 | COc1ccc(CCCN2CCC(COC(c3ccc(Cl)cc3)c3ccc(Cl)cc3)CC2)cc1 | 1100
13 | CCCCCCCCCN1CCC(COC(c2ccccc2)c2ccccc2)CC1 | 700
14 | COc1ccc(CCCN2CCN(CCC(c3ccccc3)c3ccccc3)CC2)cc1 | 2700
15 | CCCCCCCCN1CCC(COC(c2ccccc2)c2ccccc2)CC1 | 700
16 | COc1ccc(CCCN2CCC(CO)CC2)cc1 | > 20000
17 | CCCCCCCCCCN1CCC(COC(c2ccccc2)c2ccccc2)CC1 | 2600
18 | COc1ccc(CCCN2CCC(COCc3ccc(Cl)cc3)CC2)cc1 | 500
19 | COc1ccc(CCCN2CCC(COC(c3ccccc3)c3ccc(Cl)cc3)CC2)cc1 (stereo not given) | 200
20 | COc1ccc(CCCN2CCC(COCC3CCCCC3)CC2)cc1 | 3000

Continued, values first:

Row | IC50 [nM] | SMILES
21 | > 20000 | CCN1CCC(COC(c2ccccc2)c2ccccc2)CC1
22 | 2200 | Clc1ccc(CCCN2CCC(COC(c3ccccc3)c3ccccc3)CC2)cc1Cl
23 | 5600 | c1ccc(C(OCC2CCN(CC3CCc4ccccc4C3)CC2)c2ccccc2)cc1 (stereo not given)
24 | 10800 | CCCCCN1CCC(COC(c2ccccc2)c2ccccc2)CC1
25 | 1500 | COc1cccc(CCCN2CCC(COC(c3ccccc3)c3ccccc3)CC2)c1
26 | > 20000 | C(#Cc1ccccc1)CN1CCC(COC(c2ccccc2)c2ccccc2)CC1
27 | 17800 | CCCN1CCC(COC(c2ccccc2)c2ccccc2)CC1
28 | 800 | Clc1ccccc1CCCN1CCC(COC(c2ccccc2)c2ccccc2)CC1
29 | 700 | c1ccc(CCCN2CCC(COC(c3ccccc3)c3ccccc3)CC2)cc1
30 | 2900 | COc1ccc(CCN2CCC(COC(c3ccccc3)c3ccccc3)CC2)cc1
31 | > 20000 | CN1CCC(COC(c2ccccc2)c2ccccc2)CC1
32 | 4300 | COc1ccc(/C=C/CN2CCC(COC(c3ccccc3)c3ccccc3)CC2)cc1
33 | 500 | Clc1ccc(CCCN2CCC(COC(c3ccccc3)c3ccccc3)CC2)cc1
34 | 2400 | COc1ccccc1CCCN1CCC(COC(c2ccccc2)c2ccccc2)CC1
35 | 400 | COc1ccc(CCCN2CCC(COC(c3ccccc3)c3ccccc3)CC2)cc1
36 | 14000 | CCCCN1CCC(COC(c2ccccc2)c2ccccc2)CC1
37 | 200 | Cc1ccc(CCCN2CCC(COC(c3ccccc3)c3ccccc3)CC2)cc1
38 | 500 | CCCCCCCN1CCC(COC(c2ccccc2)c2ccccc2)CC1
39 | 5500 | CCCCCCN1CCC(COC(c2ccccc2)c2ccccc2)CC1

system: T-cell line; assay: In vitro inhibition of Rb efflux in human T-cells; 1-10; type: functional, cell-based

Row | SMILES | IC50 [nM]
40 | CCCCCCC[N+](CC)(CC)CCCCc1ccc(Cl)cc1 [CLOFILIUM] | 1000
41 | CN(CCOc1ccc(NS(C)(=O)=O)cc1)CCc1ccc(NS(C)(=O)=O)cc1 [DOFETILIDE] | 1000
42 | COc1ccc(Cl)cc1C(=O)NCCc1ccc(S(=O)(=O)NC(=O)NC2CCCCC2)cc1 [GLYBURIDE] | 1000
43 | CC(C)NCC(O)c1ccc(NS(C)(=O)=O)cc1 (stereo not given) [SOTALOL] | 1000
44 | CC[N+](CC)(CC)CC [TETRYLAMMONIUM] | 1000

target: Potassium voltage-gated channel subfamily A member 3 (Homo sapiens, UniProt P22001); assay: In vitro inhibition of human T-cells voltage-gated potassium channel subunit Kv1.3; type: cell-based, T-cell
Sequence (P22001 whole entry): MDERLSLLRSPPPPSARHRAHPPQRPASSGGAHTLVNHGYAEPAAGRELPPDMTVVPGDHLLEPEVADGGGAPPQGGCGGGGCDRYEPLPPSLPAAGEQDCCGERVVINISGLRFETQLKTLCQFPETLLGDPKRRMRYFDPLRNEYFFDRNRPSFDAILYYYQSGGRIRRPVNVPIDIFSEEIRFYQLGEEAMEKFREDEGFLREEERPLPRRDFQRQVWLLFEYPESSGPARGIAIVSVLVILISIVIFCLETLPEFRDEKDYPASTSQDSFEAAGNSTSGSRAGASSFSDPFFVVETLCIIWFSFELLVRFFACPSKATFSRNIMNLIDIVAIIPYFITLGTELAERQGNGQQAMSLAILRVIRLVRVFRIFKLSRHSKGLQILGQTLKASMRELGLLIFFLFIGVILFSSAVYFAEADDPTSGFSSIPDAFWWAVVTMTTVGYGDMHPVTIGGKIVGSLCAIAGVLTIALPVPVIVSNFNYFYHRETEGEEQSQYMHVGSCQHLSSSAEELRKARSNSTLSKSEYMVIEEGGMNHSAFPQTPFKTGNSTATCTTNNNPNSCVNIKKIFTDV

Row | SMILES | IC50 [nM]
45 | COc1ccc(CCCN2CCC(COC(c3ccccc3)c3ccccc3)CC2)cc1 | 200
